In patent publication US8093275B2, “Oxazolone and pyrrolidinone-substituted pryidine amides as P2X3 and P2X2/3 antagonists” (Roche Palo Alto LLC, priority 2009, dated 2012):

Target: T1, rat P2X3 receptor (Rattus norvegicus, UniProt P49654)
T1 construct: expressed in transfected cells; host or cells: CHO-K1
T1 sequence (P49654 1-397): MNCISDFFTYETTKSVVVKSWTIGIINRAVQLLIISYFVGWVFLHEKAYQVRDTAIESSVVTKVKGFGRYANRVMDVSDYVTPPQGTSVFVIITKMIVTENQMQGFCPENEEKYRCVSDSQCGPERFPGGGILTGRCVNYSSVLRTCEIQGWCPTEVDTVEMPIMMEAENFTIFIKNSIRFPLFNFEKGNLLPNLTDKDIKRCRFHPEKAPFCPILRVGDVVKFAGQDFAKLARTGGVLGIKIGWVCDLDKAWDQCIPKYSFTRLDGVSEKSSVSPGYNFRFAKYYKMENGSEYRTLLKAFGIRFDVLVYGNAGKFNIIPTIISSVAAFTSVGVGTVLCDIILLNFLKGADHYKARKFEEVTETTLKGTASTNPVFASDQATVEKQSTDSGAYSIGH
Test: P2X3 FLIPR (Fluorometric Imaging Plate Reader) assay
Assay type: cell-based
Conditions: CHO-K1 cells transfected with rat P2X3, agonist α,β-meATP 1 μM, FLIPR calcium fluorescence; for Ki: read-out: pKi P2X3 (converted)
Protocol: CHO-K1 cells were transfected with cloned rat P2X3 or human P2X2/3 receptor subunits and passaged in flasks. 18-24 hours before the FLIPR experiment, cells were released from their flasks, centrifuged, and resuspended in nutrient medium at 2.5×10^5 cells/ml. The cells were aliquoted into black-walled 96-well plates at a density of 50,000 cells/well and incubated overnight in 5% CO2 at 37° C. On the day of the experiment, cells were washed in FLIPR buffer (calcium- and magnesium-free Hank's balanced salt solution, 10 mM HEPES, 2 mM CaCl2, 2.5 mM probenecid; FB). Each well received 100 μl FB and 100 μl of the fluorescent dye Fluo-3 AM [2 μM final conc.]. After a 1 hour dye loading incubation at 37° C., the cells were washed 4 times with FB, and a final 75 μl/well FB was left in each well.
Test compounds (dissolved in DMSO at 10 mM and serially diluted with FB) or vehicle were added to each well (25 μl of a 4× solution) and allowed to equilibrate for 20 minutes at room temperature. The plates were then placed in the FLIPR and a baseline fluorescence measurement (excitation at 488 nm and emission at 510-570 nm) was obtained for 10 seconds before a 100 μl/well agonist or vehicle addition. The agonist was a 2× solution of α,β-meATP producing a final concentration of 1 μM (P2X3) or 5 μM (P2X2/3). Fluorescence was measured for an additional 2 minutes at 1 second intervals after agonist addition. A final addition of ionomycin (5 μM, final concentration) was made to each well of the FLIPR test plate to establish cell viability and maximum fluorescence of dye-bound cytosolic calcium. Peak fluorescence in response to the addition of α,β-meATP (in the absence and presence of test compounds) was measured and inhibition curves generated using nonlinear regression. PPADS, a standard P2X antagonist, was used as a positive control.

Row | Compound | Ki | pKi P2X3
1 | Cc1ccc(-c2cc(C(=O)NC3CC3)cc(N3C(=O)OC[C@@H]3C(C)C)c2)cc1 [Compound 42, 5-((S)-4-Isopropyl-2-oxo-oxazolidin-3-yl)-4′-methyl-biphenyl-3-carboxylic acid cyclopropylamide] | 1480 nM | 
2 | COCC(C)NC(=O)c1cc(-c2ccc(C)cc2)cc(N2CCNC2=O)c1 (stereo not shown) [Compound 35, 4′-Methyl-5-(2-oxo-imidazolidin-1-yl)-biphenyl-3-carboxylic acid (2-methoxy-1-methyl-ethyl)-amide] |  | 5.28
3 | Cc1ccc(-c2cc(C(=O)N[C@@H](C)CO)cc(N3C(=O)OC[C@@H]3C(C)C)c2)cc1 [Compound 43, 5-((S)-4-Isopropyl-2-oxo-oxazolidin-3-yl)-4′-methyl-biphenyl-3-carboxylic acid ((S)-2-hydroxy-1-methyl-ethyl)-amide] | 2570 nM | 
4 | CCC[C@@H]1COC(=O)N1c1cc(C(=O)NC(C)c2cnccn2)cc(-c2ccc(C)cn2)c1 (stereo partly drawn) [Compound 23, 3-(5-Methyl-pyridin-2-yl)-5-((R)-2-oxo-4-propyl-oxazolidin-3-yl)-N-(1-pyrazin-2-yl-ethyl)-benzamide] | 85.1 nM | 
5 | COCC(C)NC(=O)c1cc(-c2ccc(C)cc2)cc(N2CCNC2=O)c1 (stereo not shown) [Compound 52, 4′-Methyl-5-(2-oxo-imidazolidin-1-yl)-biphenyl-3-carboxylic acid (2-methoxy-1-methyl-ethyl)-amide] | 5250 nM | 
6 | Cc1ccc(-c2cc(C(=O)NCc3cnc(C)cn3)cc(N3C(=O)OCC3(C)C)c2)nc1 [Compound 21, 3-(4,4-Dimethyl-2-oxo-oxazolidin-3-yl)-N-(5-methyl-pyrazin-2-ylmethyl)-5-(5-methyl-pyridin-2-yl)-benzamide] | 3.55 nM | 
7 | Cc1ccc(-c2cc(C(=O)NCc3cnc(C)cn3)cc(N3C(=O)OC[C@@H]3C(C)C)c2)cc1 [Compound 44, 5-((S)-4-Isopropyl-2-oxo-oxazolidin-3-yl)-4′-methyl-biphenyl-3-carboxylic acid (5-methyl-pyrazin-2-ylmethyl)-amide] | 1020 nM | 
8 | CCC[C@@H]1COC(=O)N1c1cc(C(=O)NCc2cnc(C)cn2)cc(-c2ccc(C)cn2)c1 [Compound 24, N-(5-Methyl-pyrazin-2-ylmethyl)-3-(5-methyl-pyridin-2-yl)-5-((R)-2-oxo-4-propyl-oxazolidin-3-yl)-benzamide] | 166 nM | 

Other lines, results leading:

Row | Ki | pKi P2X3 | Compound
9 | 575 nM |  | COCC(C)NC(=O)c1cc(-c2ccc(C)cc2)cc(N2C(=O)CCC2C)c1 (stereo not shown) [Compound 36, 4′-Methyl-5-(2-methyl-5-oxo-pyrrolidin-1-yl)-biphenyl-3-carboxylic acid (2-methoxy-1-methyl-ethyl)-amide]
10 | 912 nM |  | Cc1ccc(-c2cc(C(=O)N[C@@H](C)CO)cc(N3C(=O)CCC3C)c2)nc1 (stereo partly drawn) [Compound 26, N-((S)-2-Hydroxy-1-methyl-ethyl)-3-(2-methyl-5-oxo-pyrrolidin-1-yl)-5-(5-methyl-pyridin-2-yl)-benzamide]
11 | 1000 nM |  | Cc1ccc(-c2cc(C(=O)NC(C)c3cnccn3)cc(N3C(=O)OC[C@H]3C)c2)nc1 (stereo partly drawn) [Compound 15, 3-((R)-4-Methyl-2-oxo-oxazolidin-3-yl)-5-(5-methyl-pyridin-2-yl)-N-(1-pyrazin-2-yl-ethyl)-benzamide]
12 | 3800 nM |  | CCC[C@@H]1COC(=O)N1c1cc(C(=O)N[C@@H](C)CO)cc(-c2ccc(C)cn2)c1 [Compound 22, N-((S)-2-Hydroxy-1-methyl-ethyl)-3-(5-methyl-pyridin-2-yl)-5-((R)-2-oxo-4-propyl-oxazolidin-3-yl)-benzamide]
13 | 28.2 nM |  | Cc1ccc(-c2cc(C(=O)N[C@@H](C)CO)cc(N3C(=O)OCC3(C)C)c2)nc1 [Compound 25, 3-(4,4-Dimethyl-2-oxo-oxazolidin-3-yl)-N-((S)-2-hydroxy-1-methyl-ethyl)-5-(5-methyl-pyridin-2-yl)-benzamide]
